From ChEMBL document CHEMBL1152547, “Synthesis and evaluation of anticancer activity of 2-arylamino-6-trifluoromethyl-3-(hydrazonocarbonyl)pyridines” (Bioorg Med Chem, 2009)

Key:
[1] = tested on: EKVX; test: Cytotoxicity against human EKVX cells after 48 hrs by sulforhodamine B assay; assay type: functional
[2] = tested on: SF-295; test: Cytotoxicity against human SF295 cells after 48 hrs by sulforhodamine B assay; assay type: functional; settings: SF-295, 48 h
[3] = Cytotoxicity against human NCI60 cells assessed as cell growth at 10 uM after 48 hrs by sulforhodamine B assay; assay type: functional; settings: NCI60, 48 h, read-out: Activity
[4] = Cytotoxicity against human NCI60 cells after 48 hrs by sulforhodamine B assay; assay type: functional; settings: NCI60, 48 h, read-out: pTGI (converted)
[5] = tested on: T47D; test: Cytotoxicity against human T47D cells after 48 hrs by sulforhodamine B assay; assay type: functional
[6] = Toxicity in ip dosed athymic mouse assessed as body weight loss administered as single dose measured after 2 weeks; assay type: organism-based; settings: in vivo
[7] = Toxicity in ip dosed athymic mouse assessed as lethality administered as single dose measured after 2 weeks; assay type: organism-based; settings: in vivo
[8] = tested on: MDA-MB-468; test: Cytotoxicity against human MDA-MB-468 cells after 48 hrs by sulforhodamine B assay; assay type: functional; settings: MDA-MB-468, 48 h
[9] = tested on: NCI-H226; test: Cytotoxicity against human NCI-H226 cells after 48 hrs by sulforhodamine B assay; assay type: functional; settings: NCI-H226, 48 h
[10] = tested on: HOP-92; test: Cytotoxicity against human HOP92 cells after 48 hrs by sulforhodamine B assay; assay type: functional; settings: HOP-92, 48 h
[11] = tested on: PC-3; test: Cytotoxicity against human PC3 cells after 48 hrs by sulforhodamine B assay; assay type: functional; settings: PC-3, 48 h
[12] = tested on: MCF7; test: Cytotoxicity against human MCF7 cells after 48 hrs by sulforhodamine B assay; assay type: functional; settings: MCF7, 48 h
[13] = tested on: MDA-MB-231; test: Cytotoxicity against human MDA-MB-231 cells after 48 hrs by sulforhodamine B assay; assay type: functional; settings: MDA-MB-231, 48 h
[14] = tested on: BT-549; test: Cytotoxicity against human BT549 cells after 48 hrs by sulforhodamine B assay; assay type: functional; settings: BT-549, 48 h
[15] = tested on: TK-10; test: Cytotoxicity against human TK10 cells after 48 hrs by sulforhodamine B assay; assay type: functional; settings: TK-10, 48 h
[16] = tested on: CAKI-1; test: Cytotoxicity against human Caki1 cells after 48 hrs by sulforhodamine B assay; assay type: functional; settings: CAKI-1, 48 h

Question: Which GI50 [1] does the source give for `Cc1cc(Cl)ccc1Nc1nc(C(F)(F)F)ccc1C(=O)N/N=C/c1c(Cl)cccc1Cl` here?
Answer: Its GI50 is 195 nM.

Question: And the TGI ([1]; read-out: pTGI (converted))?
Answer: Its TGI is 708 nM.

Question: What about the GI50 [2] of the same molecule?
Answer: The GI50 was 24 nM.

Question: What about the TGI ([2]; read-out: pTGI (converted)) of the same molecule?
Answer: The TGI was 295 nM.

Question: What about the growth at 10 µM [3] of the same molecule?
Answer: Its growth at 10 µM is -6.89%.

Question: And the TGI [4]?
Answer: The TGI was 11.7 µM.

Question: What about the GI50 [5] of the same molecule?
Answer: The GI50 was 224 nM.

Question: And the TGI ([5]; read-out: pTGI (converted))?
Answer: Its TGI is 794 nM.

Question: And the MTD at 336 h [6]?
Answer: Its MTD at 336 h is 400 mg/kg.

Question: And the MTD at 336 h [7]?
Answer: Its MTD at 336 h is 400 mg/kg.

Question: What about the GI50 [8] of the same molecule?
Answer: Its GI50 is 275 nM.

Question: And the TGI ([8]; read-out: pTGI (converted))?
Answer: The TGI was 851 nM.

Question: What about the GI50 [9] of the same molecule?
Answer: The GI50 was 135 nM.

Question: What about the TGI ([9]; read-out: pTGI (converted)) of the same molecule?
Answer: The TGI was 525 nM.

Question: What about the GI50 [10] of the same molecule?
Answer: The GI50 was 191 nM.

Question: And the TGI ([10]; read-out: pTGI (converted))?
Answer: The TGI was 537 nM.

Question: What about the GI50 [11] of the same molecule?
Answer: The GI50 was 229 nM.

Question: What about the TGI ([11]; read-out: pTGI (converted)) of the same molecule?
Answer: The TGI was 871 nM.

Question: What about the GI50 [12] of the same molecule?
Answer: The GI50 was 234 nM.

Question: And the TGI ([12]; read-out: pTGI (converted))?
Answer: The TGI was 741 nM.

Question: And the GI50 [13]?
Answer: Its GI50 is 155 nM.

Question: And the TGI ([13]; read-out: pTGI (converted))?
Answer: The TGI was 851 nM.

Question: And the GI50 [14]?
Answer: The GI50 was 195 nM.

Question: And the TGI ([14]; read-out: pTGI (converted))?
Answer: Its TGI is 676 nM.

Question: What about the GI50 [15] of the same molecule?
Answer: Its GI50 is 224 nM.

Question: And the TGI ([15]; read-out: pTGI (converted))?
Answer: Its TGI is 794 nM.

Question: And the GI50 [16]?
Answer: Its GI50 is 12.6 nM.

Question: And the CC50 ([16]; read-out: pLC50 (the source's name) (converted))?
Answer: Its CC50 is 43.7 µM.

Question: What about the TGI ([16]; read-out: pTGI (converted)) of the same molecule?
Answer: Its TGI is 324 nM.
